{"source": "patent US9926369B2", "about": "“Methods for treating hepatocellular cancer by administering an anti-Ang-2 antibody” (Regeneron Pharmaceuticals, Inc., priority 2009, dated 2018)", "key": {"[1]": {"target": "Dimeric Human Ang-2FD-mFc (Homo sapiens, UniProt O15123)", "sequence (O15123 with tags, fused parts or gaps)": "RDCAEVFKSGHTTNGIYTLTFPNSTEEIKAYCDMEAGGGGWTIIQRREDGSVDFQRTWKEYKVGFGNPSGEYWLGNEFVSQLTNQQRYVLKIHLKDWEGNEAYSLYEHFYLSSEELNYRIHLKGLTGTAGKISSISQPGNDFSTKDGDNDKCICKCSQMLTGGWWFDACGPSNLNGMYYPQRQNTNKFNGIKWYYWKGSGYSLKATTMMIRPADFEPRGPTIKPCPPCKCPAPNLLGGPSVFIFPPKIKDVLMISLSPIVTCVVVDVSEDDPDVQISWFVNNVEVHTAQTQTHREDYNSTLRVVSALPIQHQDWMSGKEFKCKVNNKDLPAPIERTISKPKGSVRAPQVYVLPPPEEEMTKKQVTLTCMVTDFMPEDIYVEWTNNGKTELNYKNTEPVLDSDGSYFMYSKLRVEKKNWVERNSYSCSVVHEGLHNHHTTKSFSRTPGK", "assay": "Cross-species SPR binding at 25° C. or 37° C., human Ang-2FD-mFc", "description": "(§1) Additional binding experiments were conducted using selected anti-Ang-2 antibodies at two different temperatures to further assess cross-species affinity. Each selected antibody or control construct was captured at a flow rate of 40 μL/min for 1 minute on a goat anti-human kappa polyclonal antibody surface created through direct chemical coupling to a BIACORE™ chip to form a captured antibody surface. Human, monkey and mouse Ang-2FD-Fc at a concentration of 25 nM or 0.78 nM was injected over the captured antibody surface at a flowrate of 60 μL/min for 3 minutes, and antigen-antibody dissociation was monitored in real time for 20 minutes at either 25° C. or 37° C."}, "[2]": {"target": "Dimeric Monkey Ang-2FD-hFc", "sequence (as listed by the source)": "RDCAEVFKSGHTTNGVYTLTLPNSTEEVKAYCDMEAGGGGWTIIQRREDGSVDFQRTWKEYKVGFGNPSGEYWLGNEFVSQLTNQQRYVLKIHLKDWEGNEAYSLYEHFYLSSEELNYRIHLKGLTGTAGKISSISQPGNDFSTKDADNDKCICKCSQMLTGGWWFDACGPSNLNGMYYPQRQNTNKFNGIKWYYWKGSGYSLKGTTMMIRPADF", "assay": "Cross-species SPR binding at 25° C. or 37° C., monkey Ang-2FD-hFc", "description": "as §1"}, "[3]": {"target": "biotin-hBA2 binding to hTie-2 (Homo sapiens, UniProt O15123)", "sequence (O15123 with tags, fused parts or gaps)": "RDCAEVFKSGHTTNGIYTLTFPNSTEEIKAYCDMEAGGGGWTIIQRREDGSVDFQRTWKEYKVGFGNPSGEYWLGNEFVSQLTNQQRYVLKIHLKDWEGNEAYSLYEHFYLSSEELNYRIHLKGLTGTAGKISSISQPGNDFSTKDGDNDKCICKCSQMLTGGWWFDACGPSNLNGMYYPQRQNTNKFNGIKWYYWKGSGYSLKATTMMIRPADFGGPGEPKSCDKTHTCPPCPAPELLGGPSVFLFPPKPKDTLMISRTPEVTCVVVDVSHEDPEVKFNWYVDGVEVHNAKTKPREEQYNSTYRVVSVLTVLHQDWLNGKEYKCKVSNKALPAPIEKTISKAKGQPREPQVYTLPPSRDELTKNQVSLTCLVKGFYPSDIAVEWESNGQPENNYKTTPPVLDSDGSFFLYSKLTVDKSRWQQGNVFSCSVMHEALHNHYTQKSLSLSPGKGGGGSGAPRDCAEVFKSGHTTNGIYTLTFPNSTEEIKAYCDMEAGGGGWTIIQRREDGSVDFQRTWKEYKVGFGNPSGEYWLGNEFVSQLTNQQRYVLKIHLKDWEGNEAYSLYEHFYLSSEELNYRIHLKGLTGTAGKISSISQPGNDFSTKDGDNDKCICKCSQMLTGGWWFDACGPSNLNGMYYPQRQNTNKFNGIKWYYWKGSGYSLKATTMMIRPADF", "assay": "ELISA blocking of biotinylated hBA2 binding to hTie-2-His", "assay_type": "biochemical", "settings": "antibodies cloned onto human IgG1; NB: no blocking observed at 5 nM concentration; read-out: Biotin - hBA2 IC50", "description": "For this experiment, human Tie-2 conjugated to a histidine tag (hTie-2-His; SEQ ID NO:526) was used in a similar fashion to the hTie-2-mFc described above. Antibody concentrations from 5 nM were serially diluted three-fold. […] An average IC50 value for each antibody was calculated based on two separate experiments."}, "[4]": {"tested_on": "Tie-2 phosphorylation (Ang-2-mediated) in HUVECs", "assay": "Inhibition of Ang-2-mediated Tie-2 phosphorylation in FOXO1-adenovirus infected HUVECs", "assay_type": "cell-based, human", "settings": "antibody 0.5 μg/ml", "description": "Further, the inventors have shown that infection of HUVECs with an adenovirus encoding FOXO1 results in expression and secretion of Ang-2, followed by activation of Tie-2 phosphorylation (Daly et al. 2006 PNAS 103:15491).\nAnti-Ang-2 antibodies were tested for their ability to inhibit Tie-2 phosphorylation. Briefly, 7×10^5 HUVECs (Vec Technologies, Rensselaer, N.Y.) were plated in 6 cm cell culture dishes in 3.5 ml of MCDB131 Complete medium (Vec Technologies, Rensselaer, N.Y.). The following day, the cells were washed with Opti-MEM (Invitrogen Corp., Carlsbad, Calif.) and fed with 2 ml of Opti-MEM. […] Cells were then washed with MCDB131 and fed with 2 ml of MCDB131 containing anti-Ang-2 antibodies at a concentration of 0.5 μg/ml. At twenty hours post infection, cells were lysed and subjected to Tie-2 immunoprecipitation as described by Daly et al., Proc. Natl. Acad. Sci. USA 103:15491-15496 (2006). Immunoglobulin was collected on protein A/G beads (Santa Cruz Biotechnology, Santa Cruz, Calif.) for one hour. […] Signals were detected using HRP-conjugated secondary antibodies and ECL reagents (GE Healthcare, Piscataway, N.J.). X-Ray films were scanned and the phospho-Tie-2 and Tie-2 signals were quantified using ImageJ software. […]"}, "[5]": {"tested_on": "MMT tumors", "assay": "MMT tumor growth in SCID mice", "assay_type": "in vivo", "settings": "H1H685P 12.5 mg/kg, VEGF Trap 5 mg/kg", "description": "To provide additional evidence of combination efficacy, the effect of the H1H685P+VEGF Trap combination on the growth of MMT tumors was assessed. 0.5×10^6 MMT cells were implanted subcutaneously into the right hind flank of 6-8 week-old female SCID mice. […] The Fc and H1H685P groups were given 3 doses over 9 days. The VEGF Trap and combination groups were given 4 doses over 12 days. Tumor volumes were measured twice per week over the course of the experiment and tumor weights were measured upon excision of tumors at the end of the experiment (due to their large size, tumors from the Fc and H1H685P groups were collected 3 days before tumors from the VEGF Trap and combination groups). Averages (mean+/−standard deviation) of tumor growth from the beginning of treatment and of tumor weight were calculated for each group. Percent decrease of tumor weight and growth are calculated from comparison to the Fc control group."}, "[6]": {"target": "T1, hAng-2FD-mFc S-417-I (Homo sapiens, UniProt O15123, S417I)", "T1 construct": "made in house", "T1 sequence (O15123 with tags, fused parts or gaps S417I)": "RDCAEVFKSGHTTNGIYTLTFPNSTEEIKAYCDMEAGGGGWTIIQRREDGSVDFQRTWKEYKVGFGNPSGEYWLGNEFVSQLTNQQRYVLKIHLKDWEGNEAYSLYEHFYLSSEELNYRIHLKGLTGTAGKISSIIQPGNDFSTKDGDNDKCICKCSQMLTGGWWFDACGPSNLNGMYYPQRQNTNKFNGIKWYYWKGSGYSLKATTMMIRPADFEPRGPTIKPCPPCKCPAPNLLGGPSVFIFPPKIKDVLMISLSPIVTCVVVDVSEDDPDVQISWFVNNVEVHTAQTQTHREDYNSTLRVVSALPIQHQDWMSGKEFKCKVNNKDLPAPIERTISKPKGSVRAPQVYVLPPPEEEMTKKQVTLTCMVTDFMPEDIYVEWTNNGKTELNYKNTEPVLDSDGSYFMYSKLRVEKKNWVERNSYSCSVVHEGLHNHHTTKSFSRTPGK", "assay": "Ang-2FD-mFc point mutant binding experiment (SPR), S-417-I", "settings": "S-417-I mutant captured; antibody/peptibody at 100 nM; 25° C.", "source_text": "(§2) To further characterize binding between hAng2 and anti-hAng2 mAbs of the invention, seven variant hAng2-FD-mFc proteins were generated, each containing a single point mutation. Amino acids selected for mutation were based on the difference in sequence between hAng-2 and hAng-1 in the region that interacts with hTie-2 (FIG. 1). In particular, amino acids within the fibrinogen-like domain (FD) of Ang-2 which are believed to interact with Tie-2 based on crystal structure analysis, but which differ from the corresponding amino acid in Ang-1, were individually mutated to the corresponding hAng-1 residue. The results of this example indicate the amino acid residues of hAng-2 with which the Ang-2 preferential binding antibodies interact.\n(§3) In this experiment, each of the seven hAng-2FD-mFc mutant proteins were captured (˜147-283 RU) on an anti-mouse-Fc surface created through direct chemical coupling to a BIACORE™ chip. Then each Ang-2 antibody (or peptibody, as the case may be) at 100 nM was injected over the captured mFc-tagged hAng-2FD protein surface at a flowrate of 50 μl/min for 180 sec, and the dissociation of variant hAng2-FD-mFc and antibody was monitored in real time for 20 min at 25° C."}, "[7]": {"target": "T2, hAng-2FD-mFc N-467-G (Homo sapiens, UniProt O15123, N467G)", "T2 construct": "made in house", "T2 sequence (O15123 with tags, fused parts or gaps N467G)": "as the sequence (O15123 with tags, fused parts or gaps S417I) above, with I136S, N186G counted along it", "assay": "Ang-2FD-mFc point mutant binding experiment (SPR), N-467-G", "settings": "N-467-G mutant captured; antibody/peptibody at 100 nM; 25° C.", "source_text": "as §2, §3"}}, "data": [{"substance": "H1H685P: human anti-Ang-2 antibody, HCVR/LCVR SEQ ID NOs 18/20; also referred to as mAb1 [Antibody H1H685P]", "values": [{"measurement": "Kd", "setting": "[1]; 25° C.", "result": 0.0117, "unit": "nM"}, {"measurement": "Kd", "setting": "[1]; 37° C.", "result": 0.027, "unit": "nM"}, {"measurement": "Kd", "setting": "[2]; 25° C.", "result": 0.022, "unit": "nM"}, {"measurement": "Kd", "setting": "[2]; 37° C.", "result": 0.0721, "unit": "nM"}, {"measurement": "IC50", "setting": "[3]", "result": 0.02, "unit": "nM"}, {"measurement": "Inhibition of Tie-2 phosphorylation", "setting": "[4]", "result": "+++ (75-100%)"}, {"measurement": "Inhibition of Tie-2 phosphorylation (in words)", "setting": "[4]", "result": "Especially robust inhibition"}, {"measurement": "% Decrease in Tumor Growth", "setting": "[5]", "result": 15, "unit": "%"}, {"measurement": "% Decrease in Tumor Weight", "setting": "[5]", "result": 11, "unit": "%"}, {"measurement": "Avg Tumor Growth", "setting": "[5]", "result": "1135 ± 306", "unit": "mm^3"}, {"measurement": "Avg Tumor Weight", "setting": "[5]", "result": "1.409 ± 0.314", "unit": "g"}, {"measurement": "Kd", "setting": "[6]", "result": 0.0305, "unit": "nM"}, {"measurement": "RU", "setting": "[6]", "result": 127.65, "unit": "RU"}, {"measurement": "Kd", "setting": "[7]", "result": 0.00938, "unit": "nM"}, {"measurement": "RU", "setting": "[7]", "result": 152.25, "unit": "RU"}]}]}
